The values below are quoted from earlier work in PMC7211195 (Investigational New Drugs, 2019).

SMILES strings stand for the structures. Where two headings read alike, the source gives them in different places.

The conditions of series [1]: in rats, cited from earlier work.
The conditions of series [2]: cited from earlier work.
On the set-up of series [3]: method as in PMID 19276246. To be noted: cited from earlier work; for increase in concentration in the brain: abcb1a/1b;abcg2(−/−) mice.
On the set-up of series [4]: method as in PMID 24113148. To be noted: cited from earlier work.

As for `COc1cc2c(cc1OC)CN(CCc1ccc(NC(=O)c3cccc4c(=O)c5cccc(OC)c5[nH]c34)cc1)CC2` [Elacridar, 9,10-dihydro-5-methoxy-9-oxo-N-[4-[2-(1,2,3,4-tetrahydro-6,7-dimethoxy-2-isoquinolinyl)ethyl]phenyl]-4-acridine-carboxamide], the “bound to plasma proteins” value in series [1] (ref 16) is 98.1 ± 1.7%; in series [1] (ref 30), 99.0 ± 0.6%.

Take `C[C@@H](Oc1cc(-c2cnn(C3CCNCC3)c2)cnc1N)c1c(Cl)ccc(F)c1Cl` [crizotinib]: the “brain accumulation after 24 h, times greater” value in series [2] (5 mg/kg b.w., knockout vs WT mice) is “approximately 40 times”. Moreover, the “higher BP exposure than WT mice” value in series [2] (abcb1a/1b(−/−) and abcb1a/1b;abcg2(−/−) mice, 5 mg/kg b.w.) is on record as “approximately 2 times”. Moreover, the “brain accumulation, times greater than in WT mice” value in series [2] (abcb1a/1b(−/−) mice, dose increased ten-fold) is “approximately 70 times”.

With `Cc1nc(Nc2ncc(C(=O)Nc3c(C)cccc3Cl)s2)cc(N2CCN(CCO)CC2)n1` [dasatinib], in series [3] (WT mice), the “brain-to-plasma ratio increase with elacridar” value was 4.4 times. The “increase in concentration in the brain” value in series [3] (intraperitoneal administration) is listed as 22.7 times; in series [3] (oral administration), 13.2 times.

In the case of `CCN(CC)CCNC(=O)c1c(C)[nH]c(/C=C2\C(=O)Nc3ccc(F)cc32)c1C` [sunitinib], the DTIBT in series [4] (bcrp1(−/−) mice) is listed as 2.1; in series [4] (mdr1a/b(−/−) mice), 3.9; in series [4] (mice with both knockout genes), 48.9.
